The source of these data is ChEMBL document CHEMBL3994576, “Targeting Alzheimer's disease by investigating previously unexplored chemical space surrounding the cholinesterase inhibitor donepezil” (Eur J Med Chem, 2017).

One data set is described as follows: clinical. As to conditions: human, in vivo, po.
The subject of a further data set is SH-SY5Y. Briefly: cells. The data set is classed as ADME, cell-based. As to conditions: Homo sapiens, 72 h.
Data set [1] in a line: Elimination half life in human. The data set is classed as ADME. As to conditions: read-out: beta t1/2.
For the next data set, the target named is Acetylcholinesterase (Electrophorus electricus, UniProt O42275). Briefly: Inhibition of electric eel AChE using acetylthiocholine iodide as substrate by Ellman's method. On the technique in general: In Ellman's method for cholinesterases, released thiocholine reacts with DTNB.
Sequence of Acetylcholinesterase (O42275 whole entry): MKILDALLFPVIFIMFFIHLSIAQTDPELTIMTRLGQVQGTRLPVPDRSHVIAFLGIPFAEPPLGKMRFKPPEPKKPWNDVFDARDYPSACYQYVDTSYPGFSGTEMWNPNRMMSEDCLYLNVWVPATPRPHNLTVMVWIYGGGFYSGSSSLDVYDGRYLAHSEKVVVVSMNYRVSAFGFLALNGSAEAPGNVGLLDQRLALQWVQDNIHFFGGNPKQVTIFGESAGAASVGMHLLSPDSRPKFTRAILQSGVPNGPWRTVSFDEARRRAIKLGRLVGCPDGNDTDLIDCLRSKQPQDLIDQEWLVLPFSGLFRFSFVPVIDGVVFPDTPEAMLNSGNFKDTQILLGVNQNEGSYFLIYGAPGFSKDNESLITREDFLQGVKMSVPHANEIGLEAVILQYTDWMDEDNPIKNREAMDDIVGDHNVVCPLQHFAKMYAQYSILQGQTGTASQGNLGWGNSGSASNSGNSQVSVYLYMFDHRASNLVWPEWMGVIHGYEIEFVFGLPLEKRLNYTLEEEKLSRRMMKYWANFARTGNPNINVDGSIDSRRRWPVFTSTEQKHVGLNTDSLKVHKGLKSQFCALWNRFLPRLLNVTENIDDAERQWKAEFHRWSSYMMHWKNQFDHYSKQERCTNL

The bioavailability is dose-corrected exposure relative to a reference, in per cent. For orientation: IC50 means the concentration that inhibits the measured activity by half. A low value points to greater potency in that assay.

As to `COc1cc2c(cc1OC)C(=O)C(CC1CCN(Cc3ccccc3)CC1)C2` (stereo not given) [DONEPEZIL], the bioavailability in the data set “clinical” was found to be 100%. This compound registered an IC50 in the data set on SH-SY5Y of 15.5 µM. The half-life in data set [1] is 70 to 80 h. `COc1cc2c(cc1OC)C(=O)C(C(=O)OCC1CN(Cc3ccccc3)C1)C2` (stereo not given): the IC50 was greater than 100 µM in the data set on SH-SY5Y and greater than 10 µM on Acetylcholinesterase. On the same counts, the results for `COc1cc2c(cc1OC)C(=O)/C(=C/C1CCCN(Cc3ccccc3)C1)C2` (stereo not given) are 4.72 µM and 1.18 µM. In the case of `COc1cc2c(cc1OC)C(=O)C(C(=O)OCC1CCN(Cc3ccccc3)CC1)C2` (stereo not given), at Acetylcholinesterase, the IC50 is greater than 10 µM. The same measure, in the same setting: under `COc1cc2c(cc1OC)C(=O)C(C(=O)OCC1CCN1Cc1ccccc1)C2` (stereo not given) stands greater than 10 µM. With `COc1cc2c(cc1OC)C(=O)/C(=C/C1CCCN1Cc1ccccc1)C2` (stereo not given), the IC50 was 19 µM in the data set on SH-SY5Y and greater than 10 µM against Acetylcholinesterase. In the data set on SH-SY5Y, `COc1cc2c(cc1OC)C(=O)C(OC(=O)C1CCN(Cc3ccccc3)CC1)C2` (stereo not given) yielded an IC50 greater than 100 µM. In turn, `COc1cc2c(cc1OC)C(=O)C(C[C@@H]1CCCN1Cc1ccccc1)C2` (stereo not given in full) showed an IC50 against Acetylcholinesterase of 3.16 µM.

Take `COc1cc2c(cc1OC)C(=O)C(CC1CCN1Cc1ccccc1)C2` (stereo not given): the IC50 was 58.5 µM in the data set with SH-SY5Y and greater than 10 µM against Acetylcholinesterase. On the same counts, the results for `COc1cc2c(cc1OC)C(=O)C(CC1CCCCN1Cc1ccccc1)C2` (stereo not given) are greater than 100 µM and 0.46 µM. Compound `COc1cc2c(cc1OC)C(=O)/C(=C/C1CCCCN1Cc1ccccc1)C2` (stereo not given) had an IC50 against Acetylcholinesterase of 0.75 µM. In other words, the sub-micromolar range. Consider `COc1cc2c(cc1OC)C(=O)/C(=C/C1CN(Cc3ccccc3)C1)C2`, for which the IC50 in the data set on SH-SY5Y came to 1.26 µM; on Acetylcholinesterase, 0.7 µM. Compound `COc1cc2c(cc1OC)C(=O)/C(=C/C1CN1Cc1ccccc1)C2` (stereo not given) registered an IC50 against Acetylcholinesterase greater than 10 µM. Still for that read-out and setting: under `COc1cc2c(cc1OC)C(=O)/C(=C/C1CCN1Cc1ccccc1)C2` (stereo not given) stands greater than 10 µM. As to `COc1cc2c(cc1OC)C(=O)C(CC1CCN(Cc3ccccc3)C1)C2` (stereo not given), inhibition on Acetylcholinesterase was half-maximal at 1.74 µM (IC50). Regarding `COc1cc2c(cc1OC)C(=O)C(C(=O)C1CCN(Cc3ccccc3)CC1)C2` (stereo not given), the IC50 in the data set on SH-SY5Y amounted to 63.9 µM; at Acetylcholinesterase, 0.66 µM. `COc1cc2c(cc1OC)C(=O)C(CC1CCCN(Cc3ccccc3)C1)C2` (stereo not given): the IC50 in the data set with SH-SY5Y was 66.7 µM; on Acetylcholinesterase it was 0.51 µM. `COc1cc2c(cc1OC)C(=O)C(C(=O)OCC1CCCN1Cc1ccccc1)C2` (stereo not given): on Acetylcholinesterase, the concentration for half-maximal inhibition (IC50) was greater than 10 µM. `COc1cc2c(cc1OC)C(=O)/C(=C/C1CCN(Cc3ccccc3)CC1)C2`: the half-inhibitory concentration (IC50) in the data set on SH-SY5Y turned out to be 3.99 µM; on Acetylcholinesterase, 0.42 µM.

As for `COc1cc2c(cc1OC)C(=O)C(C(=O)OCC1CN1Cc1ccccc1)C2` (stereo not given), the IC50 against Acetylcholinesterase is greater than 10 µM.

As to `COc1cc2c(cc1OC)C(=O)C(C(=O)OCC1CCCN(Cc3ccccc3)C1)C2` (stereo not given), the IC50 against Acetylcholinesterase is greater than 10 µM. As for `COc1cc2c(cc1OC)C(=O)C(C(=O)OC1CCN(Cc3ccccc3)CC1)C2` (stereo not given), the IC50 was greater than 100 µM in the data set on SH-SY5Y and 3.03 µM on Acetylcholinesterase. Compound `COc1cc2c(cc1OC)C(=O)C(C(=O)OCC1CCN(Cc3ccccc3)C1)C2` (stereo not given) showed a half-maximal inhibitory concentration (IC50) against Acetylcholinesterase greater than 10 µM. With `COc1cc2c(cc1OC)C(=O)/C(=C/C1CCN(Cc3ccccc3)C1)C2` (stereo not given), the IC50 in the data set on SH-SY5Y is 6.59 µM; against Acetylcholinesterase, 0.52 µM.

For the compound `COc1cc2c(cc1OC)C(=O)C(C(=O)OCC1CCCCN1Cc1ccccc1)C2` (stereo not given), the IC50 against Acetylcholinesterase is greater than 10 µM.

For the compound `COc1cc2c(cc1OC)C(=O)C(CC1CN(Cc3ccccc3)C1)C2` (stereo not given), the IC50 is 8.01 µM in the data set on SH-SY5Y and 1.13 µM on Acetylcholinesterase.
